Reference: patent publication US20200165194A1, “ADDITIVE COMPOSITION FOR CULTURE MEDIUM, ADDITIVE COMPOUND FOR CULTURE MEDIUM, AND METHOD FOR CULTURE OF CELLS OR TISSUE USING SAME” (NISSAN CHEMICAL CORPORATION, priority 2017, published 2020)
Like-named read-outs stand apart in the source and are kept apart here.

Assays:
Format in all cases: cell-based
[1] = system: human ovarian cancer cell line SKOV3; experiment: Action on SKOV3 cell-1: 3D (deacylated gellan gum) and 2D culture, HB-EGF medium, ATP assay (Experimental Example 2); conditions: for relative value of RLU (number of viable cells) / viability at 0.5 µM / viability at 1 µM / viability at 5 µM / viability at 10 µM / viability at 20 µM: 4 days, compound non-addition = 100%; for viability at 0.5 µM / viability at 1 µM / viability at 5 µM / viability at 10 µM / viability at 20 µM: Homo sapiens, SK-OV-3, 96 h, read-out: relative value of RLU (number of viable cells)
Procedure: According to the method of patent document 1 (WO 2014/017513), a composition of McCoy's 5a medium (manufactured by Sigma-Aldrich) containing 0.015% (w/v) deacylated gellan gum (KELCOGEL CG-LA, manufactured by Sansho Co., Ltd.) and 15% (v/v) FBS, 100 ng/mL human HB-EGF (manufactured by PEPROTECH) was prepared by a homomixer. As a control, a non-addition medium composition not containing deacylated gellan gum was prepared. Then, human ovarian cancer cell line SKOV3 (manufactured by DS PHARMA BIO MEDICAL) was suspended in the above-mentioned medium composition added with deacylated gellan gum, and dispensed into the wells of a 384 well flat bottom Ultr-low Attachment surface microplate (manufactured by Corning Incorporated, #3827) at 1000 cells/40 μL/well (three-dimensional culture (3D)). In a single layer culture (2D), human ovarian cancer cell line SKOV3 was suspended in the above-mentioned medium is composition not containing deacylated gellan gum, and dispensed into the wells of a 384 well flat bottom microplate (manufactured by Corning Incorporated, #3712) at 400 cells/40 L per well. Each plate was cultured in a standing state in a CO2 incubator (37° C., 5% CO2). On day 1 of culture, the compound to be used in the present invention dissolved in dimethyl sulfoxide (DMSO) was added by 4.4 μL each at a final concentration of 0, 0.5, 1, 5, 10, 20 μM, and continuously cultured for 4 days. An ATP reagent (44.4 μL) (CellTiter-Glo (registered trade mark) Luminescent Cell Viability Assay, manufactured by Promega) was added to and suspended in the culture medium on day 5, and the suspension was stood for 15 min at room temperature. The luminescence intensity (RLU value) was measured by FlexStation3 (manufactured by Molecular Devices) and the luminescence value of the medium alone was subtracted to measure the number of viable cells.

[2] = system: mouse small intestinal organoid (Crypt); experiment: Small intestine organoid formation in Matrigel (Experimental Example 4); conditions: 5 μM, 7 days
Procedure: About 20 cm of the mouse small intestine was excised, and the adipose tissue and vascular tissue were removed on ice. The contents were sufficiently washed with PBS, cut open with scissors, and fragmented to about 2 mm. They were washed 20 times with 15 mL of PBS and the supernatant was removed. 25 mL of Gentle Cell Dissociation Reagent (manufactured by STEMCELL) was added, and the mixture was incubated at room temperature for 15 min while stirring at 20 rpm. The supernatant was removed, 10 mL of cold 0.1% BSA/PBS was added to the precipitate, and pipetting was performed three times. The supernatant was filtered with a 70 μm cell strainer (manufactured by BD Bioscience), and the filtrate was collected. Similarly, addition of 0.1% BSA/PBS to the remaining precipitate, pipetting, and filtration were repeated three times, and thus series of the four filtrates were prepared. Each filtrate was centrifuged at 290 g for 5 min at 4° C. After removing the supernatant, the cells were resuspended in 10 mL of cold 0.1% BSA/PBS and centrifuged at 200 g for 3 min at 4° C. The supernatant was removed, 10 mL of DMEM/F12 (manufactured by Wako Pure Chemical Industries, Ltd.) was added and the cells were suspended. 1 mL was separated and observed under a microscope. A filtrate having a sufficient intestinal fragment (Crypt) was selected, and the number of Crypt was counted using a hemocytometer. Cold Matrigel (registered trade mark) Matrix GFR(manufactured by Corning) in an equal amount to the cell suspension was added, mixed, and quickly dispensed into a 24-well plate warmed to 37° C. at 500 crypts/[…]/well. The plate was allowed to stand at 37° C. for 10 min to complete gelation. […] As a control, a well with no addition of the compound was prepared. After culturing for 7 days, the number and diameter of the formed small intestinal organoids were measured under a microscope, and the comparison results with no addition (control) are shown in the ninth table.

[3] = system: Human mesenchymal stem cells (hMSC); experiment: Human mesenchymal stem cells-1: viable cell count, 2D and 3D culture (Experimental Example 9); conditions: for cell proliferation rate (relative value): hMSC, 10 μM, 7 days, compound non-addition = 1; for number of hMSC cells (in words): two-dimensional and three-dimensional cell culture conditions
Procedure: Human mesenchymal stem cells (hMSC, manufactured by TOYOBO) were precultured by a single layer culture method (2D) using an MF-medium mesenchymal stem cell proliferation medium (manufactured by TOYOBO). In three-dimensional culture method (3D), hMSC were suspended in a medium composition added with deacylated gellan gum, and seeded in a […] flat bottom Ultr-low Attachment surface plate (manufactured by Corning Incorporated, #3471) at 1.2×10^5 cells/2 mL/well. In 2D, hMSC were suspended in a deacylated gellan gum-free medium composition, and seeded in a 6-well flat bottom plate (manufactured by Corning Incorporated, #3516) at 4.0×10^4 cells/2 mL/well. […] As a control, DMSO was added at a final concentration of 0.1%. Seven days later, in the three-dimensional culture method, cells were collected from the wells, washed with PBS, and the supernatant was removed. Then, a trypsin 0.25 w/v % trypsin-1 mmol/L EDTA (ethylenediaminetetraacetic acid) solution (manufactured by Wako Pure Chemical Industries, Ltd.) was added and the cells were incubated at 37° C. for 2-5 min to disperse the spheres into single cells. The medium was added, and the mixture was centrifuged to remove the supernatant. Thereafter, the cells were resuspended in the same medium, a part was suspended in Trypan Blue (manufactured by Wako Pure Chemical Industries, Ltd.), and the number of viable cells was counted using automatic cell counter TC20 (manufactured by BIO-RAD).
In a single layer culture method, the cells were washed with PBS, 0.25 w/v % trypsin-1 mmol/L EDTA solution was added, and the cells were detached by incubating at 37° C. for 2-5 min. The medium was added, the mixture was centrifuged and the supernatant was removed. Thereafter, the cells were resuspended in the same medium, a part was suspended in Trypan Blue (manufactured by Wako Pure Chemical Industries, Ltd.) and the number of viable cells was counted using TC-20 (manufactured by BIO-RAD).
CD34 antibody (APC, manufactured by BD Bioscience), CD73 (BV421, manufactured by BD Bioscience), CD29 (BB515, manufactured by BD Bioscience) were added to the above-mentioned cell suspension, and the mixture was incubated on ice for 30 min. The cells were washed twice with 2% SM buffer (2% FBS/PBS), SM containing 1 μg/mL of Propidium Iodide (PI) was added, and the mixture was analyzed with FACSAria (manufactured by Becton Dickinson). The cell number with compound non-addition (control) was taken as 1, and relative value with addition of each compound is calculated in the fifteenth table. The positive rates or negative rates of CD34, CD73, and CD29 of cells after three-dimensional culture (3D) under the conditions with no addition or addition of the compound are shown in the sixteenth table.

[4] = 2D single layer culture, 0.5 μM
[5] = 3D culture (deacylated gellan gum), 0.5 μM
[6] = 3D culture (deacylated gellan gum), 1 μM
[7] = 3D culture (deacylated gellan gum), 5 μM
[8] = 3D culture (deacylated gellan gum), 10 μM
[9] = 3D culture (deacylated gellan gum), 20 μM
[10] = single layer culture (2D) of SKOV3 cells
[11] = three-dimensional culture (3D) of SKOV3 cells

## CCC(=NNC(=O)C(CC)Nc1ccccc1)c1ccc(O)c(C)c1O (stereo not drawn) [k-1:H-7]
[1]; [4]
  relative value of RLU (number of viable cells): 110%
[1]; 2D single layer culture, 1 μM
  relative value of RLU (number of viable cells): 105%
[1]; 2D single layer culture, 5 μM
  relative value of RLU (number of viable cells): 91%
[1]; 2D single layer culture, 10 μM
  relative value of RLU (number of viable cells): 69%
[1]; 2D single layer culture, 20 μM
  relative value of RLU (number of viable cells): 47%
[1]; [5]
  relative value of RLU (number of viable cells): 104%
[1]; [6]
  relative value of RLU (number of viable cells): 137%
[1]; [7]
  relative value of RLU (number of viable cells): 176%
[1]; [8]
  relative value of RLU (number of viable cells): 150%
[1]; [9]
  relative value of RLU (number of viable cells): 110%
[1]; [10]
  cell proliferation promoting effect (in words): a favorable cell proliferation promoting effect was not observed
[1]; [11]
  cell proliferation promoting effect (in words): exhibited cell proliferation promoting effect at a wide concentration range
[2]; control 130 ± 18
  organoid diameter (μm): 153 ± 21 μm
[2]; control = 1
  organoid number (relative value): 2.5
[2]; mouse small intestinal organoid culture
  organoid formation (in words): promotes organoid formation
[3]; 2D
  cell proliferation rate (relative value): 1.9
[3]; 3D (deacylated gellan gum)
  cell proliferation rate (relative value): 4
[3]
  number of hMSC cells (in words): showed an effect of increasing the number of hMSC cells

## CC/C(=N\NC(=O)Nc1ccccc1)c1ccc(O)c(C)c1O [k-1:H-10]
[1]; [4]
  viability at 0.5 µM: 111%
[1]; 2D single layer culture, 1 μM
  viability at 1 µM: 108%
[1]; 2D single layer culture, 5 μM
  viability at 5 µM: 102%
[1]; 2D single layer culture, 10 μM
  viability at 10 µM: 99%
[1]; 2D single layer culture, 20 μM
  viability at 20 µM: 66%
[1]; [5]
  viability at 0.5 µM: 120%
[1]; [6]
  viability at 1 µM: 120%
[1]; [7]
  viability at 5 µM: 128%
[1]; [8]
  viability at 10 µM: 138%
[1]; [9]
  viability at 20 µM: 129%
[1]; [10]
  cell proliferation promoting effect (in words): a favorable cell proliferation promoting effect was not observed
[1]; [11]
  cell proliferation promoting effect (in words): exhibited cell proliferation promoting effect at a wide concentration range
[3]; 2D
  cell proliferation rate (relative value): 1.3
[3]; 3D (deacylated gellan gum)
  cell proliferation rate (relative value): 1.7
[3]
  number of hMSC cells (in words): showed an effect of increasing the number of hMSC cells
